Literature values as cited in US11197842B2 (BIOGEN MA INC., priority 2014, dated 2021).
Structures can show the parent of a compound that is named as a salt.

Conditions: species not stated

half-life of MMF: approximately 1 hour
Compound: COC(=O)/C=C/C(=O)O [MMF, monomethyl fumarate]
